Assay results: US20090124633A1, “N-OXIDES OF HETEROCYCLIC SUBSTITUTED BISARYLUREAS FOR TREATING KINASE-MEDIATED DISEASES” (priority 2006, published 2009)

How the values were obtained:
[1] = Stability against oxygen in air; assay type: physicochemical; conditions: dissolved either in DMSO/water or in acetic acid/water, stirred on air for more than a week
Description: Stability Against Oxygen in Air
The compounds • 4-{4-[3-(2-[1,2,4]Triazol-1-yl-5-trifluoromethyl-phenyl)-ureido]-phenoxy}-pyridine-2-carboxylic acid methylamide, • 4-{4-[3-(2-[1,2,3]Triazol-1-yl-5-trifluoromethyl-phenyl)-ureido]-phenoxy}-pyridine-2-carboxylic acid methylamide, 525946 • 4-{4-[3-(2-Imidazol-1-yl-5-trifluoromethyl-phenyl)-ureido]-phenoxy}-pyridine-2-carboxylic acid methylamide, and • 1-[4-(Pyridin-4-yloxy)-phenyl]-3-(2-[1,2,4]triazol-1-yl-5-trifluoromethyl-phenyl)-urea, respectively, were dissolved either in DMSO/water or in acetic acid/water and stirred on air for more than a week.

VGFR2 (KDR) = biological target: T1, VGFR2 (KDR) (Homo sapiens, UniProt P35968); test: flashplate kinase assay, phosphorylation of Biotin-poly-Glu-Tyr (4:1) by VGFR2 (KDR); assay type: biochemical
T1 construct: The catalytic sections of the corresponding tyrosine kinases are preferably expressed as GST fusion proteins; GST
Procedure: (§1) The biological activity of N-oxide compounds according the invention are tested in one or more standard kinase assay systems as described in the art. Preferably, the compounds according the invention are tested in a kinase assay as described below, or in analogous manner thereof:
(§2) In this assay the inhibitory action of the compounds according to the invention on the phosphorylation of the substrates Biotin-poly-Glu-Tyr (4:1) by VGFR2 (KDR) or poly-Glu-Tyr (4:1) by Tie-2, respectively, is tested. In the wells of a streptavidin-coated microtiter flashplate, VEGFR2, or a microtiter flashplate, Tie-2, respectively, phosphorylate the substrates in the presence of ATPyS and small amounts of radioactive ^33P-ATP. Phosphorylated substrates bind during enzymatic reaction to the walls of the wells. The phosphorylation reaction is stopped by addition of a stopping reagent, the liquid is removed from the wells and the wells are rinsed. The amount of radioactivity incorporated into the substrate bound to the well is then measured. The reaction is done in presence of different concentrations of the compound and in absence of the compound. The inhibitory action of the compounds according to the invention is determined on the basis of the ratio of radioactivity found in the presence of a compound according to the invention in comparison to the radioactivity found in the enzymatic reaction in the absence of a compound according to the invention. The catalytic sections of the corresponding tyrosine kinases are preferably expressed as GST fusion proteins.
(§3) 100 μL of the compound to be tested are applied to a well (starting concentration: 1E-3 mol/L in 100% DMSO); the dilution for the determination of the IC 50 values is performed on a BiomekFX robot in 10 steps (range of concentration is 1E-5 to 1E-10 mol/L in the assay, i.e. 1E-5, 1E-6, 3E-7, 1E-7, 3E-8, 1E-8, 3E-9, 1E-9, 3E-10, 1E-10 mol/L).

Tie-2 = biological target: T2, Tie-2 (Homo sapiens, UniProt Q02763); test: flashplate kinase assay, phosphorylation of poly-Glu-Tyr (4:1) by Tie-2; assay type: biochemical; conditions: read-out: TIE2 [IC50]
T2 construct: The catalytic sections of the corresponding tyrosine kinases are preferably expressed as GST fusion proteins; GST
Procedure: as §1, §2, §3

T1 sequence (P35968 834-1162 limits assumed): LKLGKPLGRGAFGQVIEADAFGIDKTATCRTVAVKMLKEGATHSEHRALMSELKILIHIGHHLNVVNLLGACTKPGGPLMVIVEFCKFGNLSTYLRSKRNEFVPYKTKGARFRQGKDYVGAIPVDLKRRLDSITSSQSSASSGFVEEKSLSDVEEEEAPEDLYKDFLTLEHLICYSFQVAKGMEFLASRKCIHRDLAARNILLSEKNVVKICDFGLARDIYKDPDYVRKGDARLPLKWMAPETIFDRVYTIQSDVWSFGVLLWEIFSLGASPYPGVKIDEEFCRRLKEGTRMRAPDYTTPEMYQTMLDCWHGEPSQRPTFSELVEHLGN
T2 sequence (Q02763 824-1096 limits assumed): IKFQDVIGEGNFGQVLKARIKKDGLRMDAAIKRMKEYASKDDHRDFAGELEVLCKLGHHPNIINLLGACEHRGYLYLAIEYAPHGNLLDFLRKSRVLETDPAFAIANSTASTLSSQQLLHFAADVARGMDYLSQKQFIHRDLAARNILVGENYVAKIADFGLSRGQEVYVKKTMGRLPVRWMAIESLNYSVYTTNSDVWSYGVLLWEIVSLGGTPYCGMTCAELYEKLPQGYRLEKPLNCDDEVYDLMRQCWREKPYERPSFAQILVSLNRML

IC50 (VGFR2 (KDR)) [µM] | IC50 (Tie-2) [µM] | Structure (SMILES) | N-oxide formation on air [1]
 |  | CNC(=O)c1cc(Oc2ccc(NC(=O)Nc3cc(C(F)(F)F)ccc3-n3ccnn3)cc2)ccn1 [4-{4-[3-(2-[1,2,3]Triazol-1-yl-5-trifluoromethyl-phenyl)-ureido]-phenoxy}-pyridine-2-carboxylic acid methylamide] | No N-oxide formation could be detected
0.049 | 0.03 | CNC(=O)c1cc(Oc2ccc(NC(=O)Nc3cc(C(F)(F)F)ccc3-n3ccnn3)cc2)cc[n+]1[O-] [Compound 12, 1-Oxy-4-{4-[3-(2-[1,2,3]triazol-1-yl-5-trifluoromethyl-phenyl)-ureido]-phenoxy}-pyridine-2-carboxylic acid methylamide] | 
 |  | CNC(=O)c1cc(Oc2ccc(NC(=O)Nc3cc(C(F)(F)F)ccc3-n3cncn3)cc2)ccn1 [4-{4-[3-(2-[1,2,4]Triazol-1-yl-5-trifluoromethyl-phenyl)-ureido]-phenoxy}-pyridine-2-carboxylic acid methylamide] | No N-oxide formation could be detected
0.056 | 0.049 | CNC(=O)c1cc(Oc2ccc(NC(=O)Nc3cc(C(F)(F)F)ccc3-n3ccnc3)cc2)cc[n+]1[O-] [Compound 13, 4-{4-[3-(2-Imidazol-1-yl-5-trifluoromethyl-phenyl)-ureido]-phenoxy}-1-oxy-pyridine-2-carboxylic acid methylamide] | 
1.2 | 0.74 | O=C(Nc1ccc(Oc2cc[n+]([O-])cc2)cc1)Nc1cc(C(F)(F)F)ccc1-n1cncn1 [Compound 14, 1-[4-(1-Oxy-pyridin-4-yloxy)-phenyl]-3-(2-[1,2,4]triazol-1-yl-5-trifluoromethyl-phenyl)-urea] | 
 |  | CNC(=O)c1cc(Oc2ccc(NC(=O)Nc3cc(C(F)(F)F)ccc3-n3ccnc3)cc2)ccn1 [4-{4-[3-(2-Imidazol-1-yl-5-trifluoromethyl-phenyl)-ureido]-phenoxy}-pyridine-2-carboxylic acid methylamide] | No N-oxide formation could be detected
 |  | O=C(Nc1ccc(Oc2ccncc2)cc1)Nc1cc(C(F)(F)F)ccc1-n1cncn1 [1-[4-(Pyridin-4-yloxy)-phenyl]-3-(2-[1,2,4]triazol-1-yl-5-trifluoromethyl-phenyl)-urea] | No N-oxide formation could be detected
0.014 | 0.052 | CNC(=O)c1cc(Oc2ccc(NC(=O)Nc3cc(C(F)(F)F)ccc3-n3cncn3)cc2)cc[n+]1[O-] [Compound 11, 1-Oxy-4-{4-[3-(2-[1,2,4]triazol-1-yl-5-trifluoromethyl-phenyl)-ureido]-phenoxy}-pyridine-2-carboxylic acid methylamide] | 
